# Experimental data published in PubChem BioAssay AID1963426 (Molecular Pharmacology Branch, DTP, NCI, 2024).
# Several values for one entry are separate records, joined by “and”; a condition that tells them apart may be missing. Identical values can stand only once.
# Test system: 186277-243-T-J2-PDC complex spheroid growth, % test/control
# Test: Anticancer human tumor 186277-243-T-J2-PDC patient-derived colon adenocarcinoma cell line growth inhibition [Asc]
# Conditions: for viability, T/C: stronger effect = lower value
# Method in brief: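 Stromal components (HUVEC and hMSC) are co-assembled with the cancer cells into multicellular spheroids. Drugs are then added singly or paired, at concentrations falling by half-log increments from a clinically achievable maximum, capped at 10 microM without known Cmax.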
# [1] = curve of first compound, second compound 0.01 µM
# [2] = curve of first compound, second compound 0.0316 µM
# [3] = curve of first compound, second compound 0.1 µM
# [4] = curve of first compound, second compound 0.316 µM
# [5] = curve of first compound, second compound 1 µM
# 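Further: spheroids exposed to agents for 7 days.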
# 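Wherever viability, T/C is given: 100% = DMSO vehicle control wells.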
smiles,measurement,setting,value
NC(=O)C(=Cn1cnc(-c2cc(C(F)(F)F)cc(C(F)(F)F)c2)n1)c1cncnc1 + CNC(C)C(=O)NC1CN(S(=O)(=O)c2cccc(S(=O)(=O)N3CCC4CCC(C(=O)NC(c5ccccc5)c5ccccc5)N4C(=O)C(NC(=O)C(C)NC)C3)c2)CCC2CCC(C(=O)NC(c3ccccc3)c3ccccc3)N2C1=O,IC50,[1],192 nM
same,IC50,[2],204 nM
same,IC50,[3],210 nM
same,IC50,[4],194 nM
same,IC50,[5],178 nM
same,"viability, T/C","second compound 0.01 µM, first compound 0.000949 µM",127%
same,"viability, T/C","second compound 0.01 µM, first compound 0.003 µM",102%
same,"viability, T/C","second compound 0.01 µM, first compound 0.00949 µM",98.9%
same,"viability, T/C","second compound 0.01 µM, first compound 0.03 µM",128%
same,"viability, T/C","second compound 0.01 µM, first compound 0.0949 µM",90.3%
same,"viability, T/C","second compound 0.01 µM, first compound 0.3 µM",24.3%
same,"viability, T/C","second compound 0.0316 µM, first compound 0.000949 µM",105%
same,"viability, T/C","second compound 0.0316 µM, first compound 0.003 µM",113%
same,"viability, T/C","second compound 0.0316 µM, first compound 0.00949 µM",93.8%
same,"viability, T/C","second compound 0.0316 µM, first compound 0.03 µM",109%
same,"viability, T/C","second compound 0.0316 µM, first compound 0.0949 µM",96.9%
same,"viability, T/C","second compound 0.0316 µM, first compound 0.3 µM",26.4%
same,"viability, T/C","second compound 0.1 µM, first compound 0.000949 µM",114%
same,"viability, T/C","second compound 0.1 µM, first compound 0.003 µM",109%
same,"viability, T/C","second compound 0.1 µM, first compound 0.00949 µM",113%
same,"viability, T/C","second compound 0.1 µM, first compound 0.03 µM",118%
same,"viability, T/C","second compound 0.1 µM, first compound 0.0949 µM",107%
same,"viability, T/C","second compound 0.1 µM, first compound 0.3 µM",24.6%
same,"viability, T/C","second compound 0.316 µM, first compound 0.000949 µM",103%
same,"viability, T/C","second compound 0.316 µM, first compound 0.003 µM",107%
same,"viability, T/C","second compound 0.316 µM, first compound 0.00949 µM",110%
same,"viability, T/C","second compound 0.316 µM, first compound 0.03 µM",111%
same,"viability, T/C","second compound 0.316 µM, first compound 0.0949 µM",97.8%
same,"viability, T/C","second compound 0.316 µM, first compound 0.3 µM",20.3%
same,"viability, T/C","second compound 1 µM, first compound 0.000949 µM",93.6%
same,"viability, T/C","second compound 1 µM, first compound 0.003 µM",108%
same,"viability, T/C","second compound 1 µM, first compound 0.00949 µM",113%
same,"viability, T/C","second compound 1 µM, first compound 0.03 µM",111%
same,"viability, T/C","second compound 1 µM, first compound 0.0949 µM",85.8%
same,"viability, T/C","second compound 1 µM, first compound 0.3 µM",20.2%
NC(=O)C(=Cn1cnc(-c2cc(C(F)(F)F)cc(C(F)(F)F)c2)n1)c1cncnc1 + CCN1C(C(=O)NC23CCC(C(=O)O)(CC2)CC3)C(c2cccc(Cl)c2F)C2(C(=O)Nc3cc(Cl)ccc32)C12CCCCC2,IC50,"curve of first compound, second compound 0.03 µM",70.4 nM
same,IC50,"curve of first compound, second compound 0.0949 µM",23.4 nM
same,IC50,"curve of first compound, second compound 0.3 µM",6.95 nM
same,IC50,"curve of first compound, second compound 0.949 µM",< 0.949 nM
same,IC50,"curve of first compound, second compound 3 µM",< 0.949 nM
same,"viability, T/C","second compound 0.03 µM, first compound 0.000949 µM",111%
same,"viability, T/C","second compound 0.03 µM, first compound 0.003 µM",113%
same,"viability, T/C","second compound 0.03 µM, first compound 0.00949 µM",81.5%
same,"viability, T/C","second compound 0.03 µM, first compound 0.03 µM",60.4%
same,"viability, T/C","second compound 0.03 µM, first compound 0.0949 µM",56.3%
same,"viability, T/C","second compound 0.03 µM, first compound 0.3 µM",5.86%
same,"viability, T/C","second compound 0.0949 µM, first compound 0.000949 µM",109%
same,"viability, T/C","second compound 0.0949 µM, first compound 0.003 µM",83.3%
same,"viability, T/C","second compound 0.0949 µM, first compound 0.00949 µM",51.7%
same,"viability, T/C","second compound 0.0949 µM, first compound 0.03 µM",48%
same,"viability, T/C","second compound 0.0949 µM, first compound 0.0949 µM",46.1%
same,"viability, T/C","second compound 0.0949 µM, first compound 0.3 µM",2.91%
same,"viability, T/C","second compound 0.3 µM, first compound 0.000949 µM",65.2%
same,"viability, T/C","second compound 0.3 µM, first compound 0.003 µM",58.8%
same,"viability, T/C","second compound 0.3 µM, first compound 0.00949 µM",45.3%
same,"viability, T/C","second compound 0.3 µM, first compound 0.03 µM",34.1%
same,"viability, T/C","second compound 0.3 µM, first compound 0.0949 µM",14%
same,"viability, T/C","second compound 0.3 µM, first compound 0.3 µM",0.39%
same,"viability, T/C","second compound 0.949 µM, first compound 0.000949 µM",44.6%
same,"viability, T/C","second compound 0.949 µM, first compound 0.003 µM",40.1%
same,"viability, T/C","second compound 0.949 µM, first compound 0.00949 µM",25.3%
same,"viability, T/C","second compound 0.949 µM, first compound 0.03 µM",7.03%
same,"viability, T/C","second compound 0.949 µM, first compound 0.0949 µM",1.37%
same,"viability, T/C","second compound 0.949 µM, first compound 0.3 µM",0.18%
same,"viability, T/C","second compound 3 µM, first compound 0.000949 µM",24.1%
same,"viability, T/C","second compound 3 µM, first compound 0.003 µM",20.6%
same,"viability, T/C","second compound 3 µM, first compound 0.00949 µM",3.76%
same,"viability, T/C","second compound 3 µM, first compound 0.03 µM",0.85%
same,"viability, T/C","second compound 3 µM, first compound 0.0949 µM",0.44%
same,"viability, T/C","second compound 3 µM, first compound 0.3 µM",0.84%
Cc1nc(N2CCC3(CC2)COC(C)C3N)c(CO)nc1Sc1ccnc(N)c1Cl (configuration not stated),"viability, T/C",compound 0.00949 µM,92.7% and 111% and 93.3%
same,"viability, T/C",compound 0.03 µM,89.2% and 95.6% and 104%
same,"viability, T/C",compound 0.0949 µM,81% and 91.5% and 95.9%
same,"viability, T/C",compound 0.3 µM,102% and 103% and 96.9%
same,"viability, T/C",compound 0.949 µM,102% and 114% and 95%
same,"viability, T/C",compound 3 µM,109% (2×) and 93.4%
same,IC50,curve of compound,> 3000 nM
O=C(c1ccc(F)c(F)c1Nc1ccc(I)cc1F)N1CC(O)([C@@H]2CCCCN2)C1 + CNC(C)C(=O)NC1CN(S(=O)(=O)c2cccc(S(=O)(=O)N3CCC4CCC(C(=O)NC(c5ccccc5)c5ccccc5)N4C(=O)C(NC(=O)C(C)NC)C3)c2)CCC2CCC(C(=O)NC(c3ccccc3)c3ccccc3)N2C1=O,IC50,[1],178 nM
same,IC50,[2],176 nM
same,IC50,[3],134 nM
same,IC50,[4],126 nM
same,IC50,[5],85.4 nM
same,"viability, T/C","second compound 0.01 µM, first compound 0.00316 µM",90.3%
same,"viability, T/C","second compound 0.01 µM, first compound 0.01 µM",89.6%
same,"viability, T/C","second compound 0.01 µM, first compound 0.0316 µM",106%
same,"viability, T/C","second compound 0.01 µM, first compound 0.1 µM",78.4%
same,"viability, T/C","second compound 0.01 µM, first compound 0.316 µM",21.6%
same,"viability, T/C","second compound 0.01 µM, first compound 1 µM",11.9%
same,"viability, T/C","second compound 0.0316 µM, first compound 0.00316 µM",110%
same,"viability, T/C","second compound 0.0316 µM, first compound 0.01 µM",95.9%
same,"viability, T/C","second compound 0.0316 µM, first compound 0.0316 µM",115%
same,"viability, T/C","second compound 0.0316 µM, first compound 0.1 µM",82.2%
same,"viability, T/C","second compound 0.0316 µM, first compound 0.316 µM",17%
same,"viability, T/C","second compound 0.0316 µM, first compound 1 µM",10.4%
same,"viability, T/C","second compound 0.1 µM, first compound 0.00316 µM",107%
same,"viability, T/C","second compound 0.1 µM, first compound 0.01 µM",104%
same,"viability, T/C","second compound 0.1 µM, first compound 0.0316 µM",98.8%
same,"viability, T/C","second compound 0.1 µM, first compound 0.1 µM",61.7%
same,"viability, T/C","second compound 0.1 µM, first compound 0.316 µM",15.8%
same,"viability, T/C","second compound 0.1 µM, first compound 1 µM",9.21%
same,"viability, T/C","second compound 0.316 µM, first compound 0.00316 µM",112%
same,"viability, T/C","second compound 0.316 µM, first compound 0.01 µM",112%
same,"viability, T/C","second compound 0.316 µM, first compound 0.0316 µM",108%
same,"viability, T/C","second compound 0.316 µM, first compound 0.1 µM",59.4%
same,"viability, T/C","second compound 0.316 µM, first compound 0.316 µM",12.6%
same,"viability, T/C","second compound 0.316 µM, first compound 1 µM",7.61%
same,"viability, T/C","second compound 1 µM, first compound 0.00316 µM",106%
same,"viability, T/C","second compound 1 µM, first compound 0.01 µM",119%
same,"viability, T/C","second compound 1 µM, first compound 0.0316 µM",105%
same,"viability, T/C","second compound 1 µM, first compound 0.1 µM",41.2%
same,"viability, T/C","second compound 1 µM, first compound 0.316 µM",8.18%
same,"viability, T/C","second compound 1 µM, first compound 1 µM",7.39%
